Source: patent US8871934B2, “Fluorene compound and pharmaceutical use thereof” (Japan Tobacco Inc., priority 2008, dated 2014)
Read-outs that look alike come from different tables or passages of the source.

Molecular target: human PDHK2 (hPDHK2) (Homo sapiens (Human), UniProt Q15119)
Assay: Inhibitory action of PDHK activity in vitro (kinase reaction, residual PDH activity measured)
Assay type: biochemical
[1] = PDHK inhibitory activity, class symbol of IC50
[2] = read-out: PDHK inhibitory activity IC50
[3] = class symbol of IC50, read-out: PDHK inhibitory activity
[4] = read-out: PDHK inhibitory activity (class symbol)
[5] = PDHK inhibitory activity (class symbol)

## OCCn1cc(-c2ccc3c(c2)C(O)(C(F)(F)F)c2cccc(CO)c2-3)cn1 (stereo not drawn) [compound 590]
[1]
  IC50: > 1000 nM
[2]
  IC50: 5920 nM

## Cn1cc(-c2cc(C(C)(C)O)c3c(c2)C(O)(C(F)(F)F)c2ccccc2-3)cn1 (stereo not drawn) [compound 591]
[3]
  IC50: > 1000 nM
[2]
  IC50: > 1000 nM

## CC(C)(O)c1cc(-c2cnn(CCO)c2)cc2c1-c1ccccc1C2(O)C(F)(F)F (stereo not drawn) [compound 592]
[3]
  IC50: > 1000 nM
[2]
  IC50: > 1000 nM

## CC(C)n1cc(-c2ccc3c(c2)C(O)(C(F)(F)F)c2cccc(CO)c2-3)cn1 (stereo not drawn) [compound 593]
[3]
  IC50: > 1000 nM
[2]
  IC50: > 1000 nM

## CC(=O)c1cc(-c2cnn(CCC(=O)O)c2)cc2c1-c1ccccc1C2(O)C(F)(F)F (stereo not drawn) [compound 594]
[1]
  IC50: < 100 nM
[2]
  IC50: 48 nM

## CC(=O)c1cc(-c2cnn(C)c2)cc2c1-c1ccccc1C2(O)C(F)(F)F (stereo not drawn) [compound 596]
[1]
  IC50: < 100 nM
[2]
  IC50: 41 nM

## CCn1cc(-c2ccc3c(c2)C(O)(C(F)(F)F)c2cccc(CO)c2-3)cn1 (stereo not drawn) [compound 597]
[3]
  IC50: > 1000 nM
[2]
  IC50: > 1000 nM

## CC(O)c1cc(-c2cnn(C)c2)cc2c1-c1ccccc1C2(O)C(F)(F)F (stereo not drawn) [compound 598]
[1]
  IC50: 100 to 1000 nM
[2]
  IC50: 653 nM

## CC(=O)c1cc(OCCN2CCCC2=O)cc2c1-c1ccccc1C2(O)C(F)(F)F (stereo not drawn) [compound 599]
[1]
  IC50: < 100 nM
[2]
  IC50: 33 nM

## O=C(O)CCn1cc(-c2ccc3c(c2)C(O)(C(F)(F)F)c2cccc(CO)c2-3)cn1 (stereo not drawn) [compound 600]
[3]
  IC50: > 1000 nM
[2]
  IC50: > 1000 nM

## NC(=O)CCn1cc(-c2ccc3c(c2)C(O)(C(F)(F)F)c2cccc(CO)c2-3)cn1 (stereo not drawn) [compound 601]
[4]
  IC50: > 1000 nM
[2]
  IC50: > 1000 nM

## CC(C)(C)n1cc(-c2ccc3c(c2)C(O)(C(F)(F)F)c2cccc(CO)c2-3)cn1 (stereo not drawn) [compound 602]
[4]
  IC50: > 1000 nM
[2]
  IC50: > 1000 nM

## Cn1cc(-c2cc(C#CCO)c3c(c2)C(O)(C(F)(F)F)c2ccccc2-3)cn1 (stereo not drawn) [compound 603]
[5]
  IC50: 100 to 1000 nM
[2]
  IC50: 228 nM

## O=C(O)Cn1cc(-c2ccc3c(c2)C(O)(C(F)(F)F)c2cccc(CO)c2-3)cn1 (stereo not drawn) [compound 608]
[4]
  IC50: > 1000 nM
[2]
  IC50: > 1000 nM

## NC(=O)Cn1cc(-c2ccc3c(c2)C(O)(C(F)(F)F)c2cccc(CO)c2-3)cn1 (stereo not drawn) [compound 609]
[4]
  IC50: > 1000 nM
[2]
  IC50: > 1000 nM

## OCCCCOc1cc(CO)c2c(c1)C(O)(C(F)(F)F)c1ccccc1-2 (stereo not drawn) [compound 611]
[5]
  IC50: 100 to 1000 nM
[2]
  IC50: 329 nM

## NC(=O)c1cc(OCCN2CCCOC2=O)cc2c1-c1ccccc1C2(O)C(F)(F)F (stereo not drawn) [compound 612]
[5]
  IC50: < 100 nM
[2]
  IC50: 47 nM

## O=C(O)CCCOc1cc(-c2cnco2)c2c(c1)C(O)(C(F)(F)F)c1ccccc1-2 (stereo not drawn) [compound 613]
[5]
  IC50: < 100 nM
[2]
  IC50: 76 nM

## OCCn1cc(-c2cc(CO)c3c(c2)C(O)(C(F)(F)F)c2ccccc2-3)cn1 (stereo not drawn) [compound 615]
[5]
  IC50: 100 to 1000 nM
[2]
  IC50: 105 nM

## COC(=O)c1cc(Cl)cc2c1-c1ccccc1C2(O)C(F)(F)F (stereo not drawn) [compound 616]
[5]
  IC50: 100 to 1000 nM
[2]
  IC50: 192 nM

## CCn1cc(-c2cc(CO)c3c(c2)C(O)(C(F)(F)F)c2ccccc2-3)cn1 (stereo not drawn) [compound 618]
[5]
  IC50: < 100 nM
[2]
  IC50: 56 nM

## OCCn1cc(-c2cc(CO)cc3c2-c2ccccc2C3(O)C(F)(F)F)cn1 (stereo not drawn) [compound 620]
[5]
  IC50: < 100 nM
[2]
  IC50: 65 nM

## CC(C)n1cc(-c2cc(CO)c3c(c2)C(O)(C(F)(F)F)c2ccccc2-3)cn1 (stereo not drawn) [compound 621]
[5]
  IC50: < 100 nM
[2]
  IC50: 65 nM

## Cn1cc(-c2cc(OCC(CO)CO)cc3c2-c2ccccc2C3(O)C(F)(F)F)cn1 (stereo not drawn) [compound 622]
[5]
  IC50: < 100 nM
[2]
  IC50: 33 nM

## O=C(O)CCCn1cc(-c2cc(CO)cc3c2-c2ccccc2C3(O)C(F)(F)F)cn1 (stereo not drawn) [compound 623]
[5]
  IC50: 100 to 1000 nM
[2]
  IC50: 133 nM

## N#CCc1cc(Cl)cc2c1-c1ccccc1C2(O)C(F)(F)F (stereo not drawn) [compound 625]
[4]
  IC50: > 1000 nM
[2]
  IC50: > 1000 nM

## COc1cc(C(N)=O)c2c(c1)C(O)(C(F)(F)F)c1ccccc1-2 (stereo not drawn) [compound 626]
[5]
  IC50: 100 to 1000 nM
[2]
  IC50: 674 nM

## COc1cc(CO)c2c(c1)C(O)(C(F)(F)F)c1ccccc1-2 (stereo not drawn) [compound 627]
[4]
  IC50: > 1000 nM
[2]
  IC50: > 1000 nM

## Cn1cc(-c2cc(OC(CO)CO)cc3c2-c2ccccc2C3(O)C(F)(F)F)cn1 (stereo not drawn) [compound 628]
[5]
  IC50: < 100 nM
[2]
  IC50: 58 nM

## CC(C)Cc1cc(-c2cnn(CCO)c2)c2c(c1)C(O)(C(F)(F)F)c1ccccc1-2 (stereo not drawn) [compound 631]
[5]
  IC50: < 100 nM
[2]
  IC50: 62 nM

## C#Cc1cc(C(N)=O)c2c(c1)C(O)(C(F)(F)F)c1ccccc1-2 (stereo not drawn) [compound 632]
[5]
  IC50: 100 to 1000 nM
[2]
  IC50: 195 nM

## CCc1cc(C(N)=O)c2c(c1)C(O)(C(F)(F)F)c1ccccc1-2 (stereo not drawn) [compound 633]
[5]
  IC50: 100 to 1000 nM
[2]
  IC50: 560 nM

## CC[Si](CC)(CC)CCc1cc(C(N)=O)c2c(c1)C(O)(C(F)(F)F)c1ccccc1-2 (stereo not drawn) [compound 634]
[5]
  IC50: 100 to 1000 nM
[2]
  IC50: 100 nM

## OCc1cc(Cl)cc2c1-c1ccccc1C2(O)C(F)(F)F (stereo not drawn) [compound 635]
[5]
  IC50: 100 to 1000 nM
[2]
  IC50: 515 nM

## NC(=O)c1cc(Cl)cc2c1-c1ccccc1C2(O)C(F)(F)F (stereo not drawn) [compound 636]
[5]
  IC50: 100 to 1000 nM
[2]
  IC50: 239 nM

## Cn1cc(-c2cc(CC(N)=O)c3c(c2)C(O)(C(F)(F)F)c2ccccc2-3)cn1 (stereo not drawn) [compound 637]
[4]
  IC50: > 1000 nM
[2]
  IC50: > 1000 nM

## CC(C)(C)n1cc(-c2cc(CO)c3c(c2)C(O)(C(F)(F)F)c2ccccc2-3)cn1 (stereo not drawn) [compound 638]
[5]
  IC50: 100 to 1000 nM
[2]
  IC50: 127 nM

## CC(C)(C)n1cc(-c2cc(C(N)=O)c3c(c2)C(O)(C(F)(F)F)c2ccccc2-3)cn1 (stereo not drawn) [compound 639]
[5]
  IC50: < 100 nM
[2]
  IC50: 63 nM

## NC(=O)c1cc(OCCO)cc2c1-c1ccccc1C2(O)C(F)(F)F (stereo not drawn) [compound 640]
[5]
  IC50: 100 to 1000 nM
[2]
  IC50: 732 nM

## C#Cc1cc(CO)c2c(c1)C(O)(C(F)(F)F)c1ccccc1-2 (stereo not drawn) [compound 641]
[5]
  IC50: 100 to 1000 nM
[2]
  IC50: 510 nM

## CCc1cc(CO)c2c(c1)C(O)(C(F)(F)F)c1ccccc1-2 (stereo not drawn) [compound 642]
[4]
  IC50: > 1000 nM
[2]
  IC50: > 1000 nM

## Cn1cc(-c2cc(CCO)c3c(c2)C(O)(C(F)(F)F)c2ccccc2-3)cn1 (stereo not drawn) [compound 643]
[5]
  IC50: 100 to 1000 nM
[2]
  IC50: 184 nM

## O=C(c1cc(CO)c2c(c1)C(O)(C(F)(F)F)c1ccccc1-2)N1CC(O)C1 (stereo not drawn) [compound 644]
[5]
  IC50: 100 to 1000 nM
[2]
  IC50: 130 nM

## CC(C)Cn1cc(-c2cc(C(N)=O)c3c(c2)C(O)(C(F)(F)F)c2ccccc2-3)cn1 (stereo not drawn) [compound 645]
[5]
  IC50: < 100 nM
[2]
  IC50: 37 nM

## CC(C)(C)Cn1cc(-c2cc(C(N)=O)c3c(c2)C(O)(C(F)(F)F)c2ccccc2-3)cn1 (stereo not drawn) [compound 646]
[5]
  IC50: < 100 nM
[2]
  IC50: 40 nM

## CC(C)Cc1cc(-c2cnn(C(CO)CO)c2)c2c(c1)C(O)(C(F)(F)F)c1ccccc1-2 (stereo not drawn) [compound 648]
[5]
  IC50: < 100 nM
[2]
  IC50: 44 nM

## CC(C)Cn1cc(-c2cc(CO)c3c(c2)C(O)(C(F)(F)F)c2ccccc2-3)cn1 (stereo not drawn) [compound 649]
[5]
  IC50: < 100 nM
[2]
  IC50: 37 nM

## CC(C)(C)Cn1cc(-c2cc(CO)c3c(c2)C(O)(C(F)(F)F)c2ccccc2-3)cn1 (stereo not drawn) [compound 650]
[5]
  IC50: < 100 nM
[2]
  IC50: 36 nM

## C/C=C/c1cc(-c2cnn(C(CO)CO)c2)c2c(c1)C(O)(C(F)(F)F)c1ccccc1-2 (stereo not drawn) [compound 651]
[5]
  IC50: < 100 nM
[2]
  IC50: 25 nM

## CCCc1cc(-c2cnn(C(CO)CO)c2)c2c(c1)C(O)(C(F)(F)F)c1ccccc1-2 (stereo not drawn) [compound 652]
[5]
  IC50: < 100 nM
[2]
  IC50: 36 nM

## CCc1cc(-c2cnn(C(CO)CO)c2)c2c(c1)C(O)(C(F)(F)F)c1ccccc1-2 (stereo not drawn) [compound 653]
[5]
  IC50: < 100 nM
[2]
  IC50: 37 nM

## CC(C)c1cc(-c2cnn(C(CO)CO)c2)c2c(c1)C(O)(C(F)(F)F)c1ccccc1-2 (stereo not drawn) [compound 654]
[5]
  IC50: < 100 nM
[2]
  IC50: 55 nM

## NC(=O)c1cc(CCCN2CCCC2=O)cc2c1-c1ccccc1C2(O)C(F)(F)F (stereo not drawn) [compound 655]
[5]
  IC50: < 100 nM
[2]
  IC50: 73 nM

## O=C1CCCN1CCCc1cc(CO)c2c(c1)C(O)(C(F)(F)F)c1ccccc1-2 (stereo not drawn) [compound 656]
[5]
  IC50: 100 to 1000 nM
[2]
  IC50: 172 nM

## NC(=O)c1cc(-c2cncnc2)cc2c1-c1ccccc1C2(O)C(F)(F)F (stereo not drawn) [compound 658]
[5]
  IC50: < 100 nM
[2]
  IC50: 71 nM

## CC(C)(O)Cn1cc(-c2cc(CO)c3c(c2)C(O)(C(F)(F)F)c2ccccc2-3)cn1 (stereo not drawn) [compound 661]
[5]
  IC50: < 100 nM
[2]
  IC50: 59 nM

## NC(=O)c1cc(-c2cnn(CC3CCCCC3)c2)cc2c1-c1ccccc1C2(O)C(F)(F)F (stereo not drawn) [compound 662]
[5]
  IC50: < 100 nM
[2]
  IC50: 34 nM

## CC(C)(C)CCc1cc(-c2cnn(C(CO)CO)c2)c2c(c1)C(O)(C(F)(F)F)c1ccccc1-2 (stereo not drawn) [compound 666]
[5]
  IC50: < 100 nM
[2]
  IC50: 27 nM

## N#Cc1ccc2c(c1)C(O)(C(F)(F)F)c1ccccc1-2 (stereo not drawn) [compound 671]
[5]
  IC50: > 1000 nM
[2]
  IC50: 1440 nM

## Cc1cc(-c2cnn(C(CO)(CO)CO)c2)c2c(c1)[C@@](O)(C(F)(F)F)c1ccccc1-2 [compound 707, (+)-2-hydroxymethyl-2-[4-(9-hydroxy-2-methyl-9-trifluoromethyl-9H-fluoren-4-yl)-pyrazol-1-yl]-propane-1,3-diol]
[5]
  IC50: < 100 nM
PDHK inhibitory activity IC50 (μmol/L)
  IC50: 19 nM
